In PubChem BioAssay AID1996:
Converted amounts (≈) assume the structure as drawn.

Details: buffer; pH 7.4; 200.0 µM

Compared with `O=C(Nc1cc([N+](=O)[O-])ccc1N1CCCC1)c1cccs1`, `Nc1nc(Nc2ccccc2F)nc(N2CCCC2)c1[N+](=O)[O-]` is 6.3-fold higher in solubility kinetic: 4.1 µg/mL (≈ 12.9 µM) for the first, 25.8 µg/mL (≈ 81.1 µM) for the second.

First: O=C(Nc1ccc(-c2ccc([N+](=O)[O-])cc2)cc1)c1ccccc1F
Second: COc1ccc(NC(=O)Cc2cccc3ccccc23)cc1
The solubility kinetic of the first is lower: under 0.4 µg/mL for the first, 2.9 µg/mL (≈ 9.95 µM) for the second.

`O=C(COC(=O)C1CC1)NC(=O)c1ccccc1` and `CC(=O)c1cccc(NC(=O)CNC(=O)Cc2ccccc2)c1` cannot be ordered by solubility kinetic: over 37.1 µg/mL for the first, 43.7 µg/mL (≈ 141 µM) for the second.

Compared with `COc1cc(C(=O)NCc2ccc3[nH]c(C)cc3c2)cc(OC)c1OC`, `COc1cc(/C=C/C(=O)N(C)CC(=O)Nc2ccccc2SC)cc(OC)c1OC` is higher in solubility kinetic: 12.5 µg/mL (≈ 35.3 µM) for the first, over 64.6 µg/mL for the second.

Compared with `O=Cc1c(NCc2ccc(Cl)cc2)c2ccccc2[nH]c1=O`, `Cc1ccc(Nc2c([N+](=O)[O-])c(=O)oc3ccccc23)cc1` is 2.1-fold higher in solubility kinetic: 2.8 µg/mL (≈ 8.95 µM) for the first, 5.8 µg/mL (≈ 19.6 µM) for the second.

`O=C(Cc1ccc([N+](=O)[O-])cc1)NC(C(=O)[O-])C(O)c1cccc([N+](=O)[O-])c1.[Na+]` (stereo not given) and `COc1ccccc1C(C)NCC(=O)NCc1ccc(C)cc1` (stereo not given) cannot be ordered by solubility kinetic: over 61.7 µg/mL for the first, over 46.9 µg/mL for the second.

`Cc1ccc(SCc2noc(-c3c(C)noc3C)n2)cc1` and `Cc1ccc(SC(=O)c2c(C)noc2-c2cc(C)on2)cc1` are within 1.5-fold of each other in solubility kinetic: 2.1 µg/mL (≈ 6.97 µM) for the first, 3 µg/mL (≈ 9.54 µM) for the second.

Compared with `Cc1cc2nc(-c3ccc[nH]c3=O)n(Cc3ccccc3F)c2cc1C`, `Cn1c(CNC(=O)c2ccc(F)cc2)cc2ccccc21` is 62-fold higher in solubility kinetic: 0.4 µg/mL (≈ 1.15 µM) for the first, 24.7 µg/mL (≈ 87.5 µM) for the second.

Going from `CCCCNC(=S)Nc1ccc2[nH]c(=O)[nH]c2c1` to `CC(=O)Nc1ccc2c(c1)CCCC2`, the solubility kinetic rises from 18.4 µg/mL (≈ 69.6 µM) to over 28.4 µg/mL.

Going from `O=[N+]([O-])/C=C1\NCCN1Cc1ccc(Cl)nc1` to `O=C(Nc1ccc(Cl)cc1)/C(=C1\CCCN1)[N+](=O)[O-]`, the solubility kinetic falls from 35.8 µg/mL (≈ 141 µM) to 1 µg/mL (≈ 3.55 µM) (36-fold).

Compared with `Cc1ccc(NC(=O)C2Cc3ccccc3O/C2=N\O)cc1C` (stereo not given), `C/C(=N\O)c1oc2ccc3c(C)cc(=O)oc3c2c1C` is lower in solubility kinetic: 3.8 µg/mL (≈ 12.2 µM) for the first, under 0.6 µg/mL for the second.

`CCOC(=O)/C(C#N)=C/C1=C(N2CCOCC2)C(C)(C)OCC1` and `O=C(OCC(=O)N1CCOCC1)c1ccc(Br)cc1` cannot be ordered by solubility kinetic: over 48.1 µg/mL for the first, over 49.2 µg/mL for the second.

`O=C(COC(=O)c1cc(S(=O)(=O)N2CCCCC2)ccc1Cl)NC1CCS(=O)(=O)C1` (stereo not given) and `Cc1ccc(CN(C)C(=O)c2cccc(S(=O)(=O)N3CCCC3)c2)o1` cannot be ordered by solubility kinetic: over 71.8 µg/mL for the first, over 54.4 µg/mL for the second.

Going from `COc1ccc(/C=C/C(=O)O/N=C(\N)c2ccccn2)cc1OC` to `Cc1cccc(/C=C(\C#N)C(=O)Nc2ccccn2)c1`, the solubility kinetic rises from 7.8 µg/mL (≈ 23.8 µM) to 33.3 µg/mL (≈ 126 µM) (4.3-fold).

Compared with `COc1ccccc1NC(=O)NCC1(N(C)C)CCCCC1`, `O=C(NCCc1ccccc1)C1(c2ccccc2)CCCC1` is lower in solubility kinetic: over 45.8 µg/mL for the first, 28.9 µg/mL (≈ 98.5 µM) for the second.

Going from `NC(=O)c1ccc(NC(=O)COC(=O)c2ccc(Cl)nc2)cc1` to `CCOc1ccc(C(=O)CCC(=O)Nc2ccncc2)cc1`, the solubility kinetic falls from over 50.1 µg/mL to 42.9 µg/mL (≈ 144 µM).

Going from `O=C1SCCC1NC(=O)C(c1ccccc1)c1ccccc1` (stereo not given) to `O=C(NCCc1ccccc1)c1cc2ccccc2oc1=O`, the solubility kinetic falls from over 46.7 µg/mL to under 0.6 µg/mL.

First: COc1cc([N+](=O)[O-])ccc1NC(=O)CN1CCc2cc(OC)c(OC)cc2C1
Second: CCOc1cc(/C=C\c2nc(O)c([N+](=O)[O-])c(=O)[nH]2)ccc1OC(C)C
The solubility kinetic of the first is lower: 34.1 µg/mL (≈ 84.9 µM) for the first, over 54.2 µg/mL for the second.

Going from `Cc1cc(C)c2c(CN3CCC(C)CC3)cc(=O)oc2c1C` to `Cc1cc(C(=O)N2CCCC(Nc3ccc(F)cc3)C2)c(C)o1` (stereo not given), the solubility kinetic rises from 1.1 µg/mL (≈ 3.67 µM) to over 47.5 µg/mL.

First: O=C(CSc1ccc(F)cc1)Nc1ccc2c(c1)C(=O)NC2=O
Second: COc1ccc(C(=O)Nc2ccc(Cl)c(S(=O)(=O)N3CCOCC3)c2)cc1
The solubility kinetic of the first is 11-fold higher: 31.6 µg/mL (≈ 95.7 µM) for the first, 2.9 µg/mL (≈ 7.06 µM) for the second.

`COCCNC(=O)Cn1nc(C)c([N+](=O)[O-])c1C` and `COC(=O)c1ccccc1NS(=O)(=O)c1c(C)noc1C` cannot be ordered by solubility kinetic: over 38.4 µg/mL for the first, over 46.5 µg/mL for the second.

Compared with `COc1cccc(NC(=O)C2C3C=CC(C3)C2C(=O)O)c1` (stereo not given), `COc1ccc(NC(=O)Nc2cccs2)cn1` is higher in solubility kinetic: 27.1 µg/mL (≈ 94.3 µM) for the first, over 37.4 µg/mL for the second.

`Cc1cccc(NC(=O)CNC(=O)c2cccs2)n1` and `CCOC(=O)C(=O)NCC(c1ccco1)S(=O)(=O)c1cccs1` (stereo not given) cannot be ordered by solubility kinetic: over 41.3 µg/mL for the first, over 53.6 µg/mL for the second.

Compared with `COc1ccc(OCCSc2ncc(CO)n2C)cc1`, `Clc1ccc(OCCCCCN2CCOCC2)cc1` is lower in solubility kinetic: over 44.2 µg/mL for the first, 26.6 µg/mL (≈ 93.7 µM) for the second.

Compared with `O=C(NCC(=O)N1CCN(c2ncccn2)CC1)c1ccccc1OC(F)F`, `Cc1ccc(C)c(N2CCN(CCCc3ccccc3)CC2)c1` is 11-fold lower in solubility kinetic: 52.2 µg/mL (≈ 133 µM) for the first, 4.6 µg/mL (≈ 14.9 µM) for the second.

Going from `Cc1cccc(C)c1NC(=O)N1C2CCC1CC(O)(c1cccnc1)C2` (stereo not given) to `Brc1ccc(Nc2nc(-c3cccnc3)cs2)cc1`, the solubility kinetic falls from over 52.7 µg/mL to 0.3 µg/mL (≈ 0.903 µM).

First: Cc1ncc(CN2CCN(CCc3ccccc3)C(CCO)C2)s1 (stereo not given)
Second: CSCC(=O)N1CCCC(CO)(CCCc2ccccc2)C1 (stereo not given)
The solubility kinetic of the first is lower: 39.7 µg/mL (≈ 115 µM) for the first, over 48.2 µg/mL for the second.

Going from `CN1CCN(C(=O)/C=C/c2ccc(Cl)c(Cl)c2)CC1` to `O=c1c(Cc2c(F)cccc2Cl)c(O)ccn1C1CCCCCC1`, the solubility kinetic falls from 41 µg/mL (≈ 137 µM) to under 0.7 µg/mL.

Going from `COC(=O)Nc1nc(-c2ccc(F)cc2)c(C)s1` to `CC1CCc2c(sc(NC(=O)c3cccs3)c2C(=O)O)C1` (stereo not given), the solubility kinetic rises from 2.2 µg/mL (≈ 8.26 µM) to 47.4 µg/mL (≈ 147 µM) (22-fold).

Going from `O=C(O)CNC(=S)N(Cc1ccccc1)Cc1cccs1` to `O=S(=O)(NCc1cccs1)c1ccc(Cl)s1`, the solubility kinetic falls from over 48.1 µg/mL to 40.5 µg/mL (≈ 138 µM).
